One experiment deals with Malassezia globosa. Description: Antifungal inhibition test on agar (Malassezia suspension, growth scored against control). Format: cell-based. Also on record: key to inhibition score (density of the culture at the surface of the agar vs growth control): 3: No growth; 2: Growth < in the control dish; 1: Growth < in the control dish; 0: Growth comparable to the control dish. To be noted: positive reference 1% zinc pyrithione. How it is done: (§1) The test product is brought into contact with the Malassezia suspension. The mixture is deposited at the surface of agar medium. It is spread and the excess is recovered before incubation. It is incubated for at least 5 days at 30° C.
(§2) The products are placed in solution in liquid modified Leeming and Notman medium (LNm) and the tests are carried out in duplicate. The complete culture is at 7.5 g/l or 150 g/l (concentrated version) on a dry matter basis.
(§3) The complete culture was tested at 10% (for the concentration at 7.5 g/l) and at 1% (for the concentration at 150 g/l).
(§4) The positive reference is 1% zinc pyrithione.
(§5) The solutions of the products are twice as concentrated in order to take into account the dilution to ½ during the bringing into contact with the Malassezia suspension.
(§6) The Malassezia globosa and restricta strains were received on agar slopes and were subcultured and incubated at 30° C. until the tests.
(§7) The suspensions are prepared in 15 ml of a buffered solution (ref AEB611294, AES).
(§8) The density of the suspensions is taken at 550 nm.
(§9) The antifungal effect of the reference product is evaluated via the absence of growth of the Malassezia strain tested. This inhibition is evaluated relative to the growth control.
(§10) The inhibitions are scored from 3 to 0 via assessment of the density of the culture at the surface of the agar, in comparison with the growth control for the strain.

The subject of another experiment is Malassezia restricta. The description is as above. Format: cell-based. Also on record: key to inhibition score (density of the culture at the surface of the agar vs growth control): 3: No growth; 2: Growth < in the control dish; 1: Growth < in the control dish; 0: Growth comparable to the control dish. To be noted: positive reference 1% zinc pyrithione. The protocol: as §1, §2, §3, §4, §5, §6, §7, §8, §9, §10

In the case of Zinc pyrithione, the inhibition in words entry with Malassezia globosa and with Malassezia restricta was “Total inhibition” throughout. For the same substance, the “inhibition score (density of the culture at the surface of the agar vs growth control)” value in the experiment on Malassezia globosa (at least 5 days at 30° C.) and with Malassezia restricta (at least 5 days at 30° C.) was 3 each time.
